According to article PMC11845477, “Exploring the principles behind antibiotics with limited resistance” (Nature Communications, 2025):

Key:
[1] = system: K. pneumoniae ATCC 10031 (SEN) and K. pneumoniae ATCC 700603 (MDR); experiment: Adaptive laboratory evolution (ALE), relative MIC of evolved lines; type: cell-based, Klebsiella pneumoniae
Source text: Using the same set of bacterial strains, we initiated adaptive laboratory evolution with the aim to maximize the level of antibiotic resistance in the populations achieved during a longer, but fixed time period.
An established protocol for adaptive laboratory evolution[46],[73] was followed to propagate populations with the highest resistance levels. Starting with an antibiotic concentration that caused approximately 50% growth inhibition, ten parallel populations for each antibiotic-ancestor strain combination were grown for 72 hours at 37 °C with continuous shaking (300 RPM). MHB broth medium was used unless stated otherwise. After each incubation, 20 µl of each culture was transferred to four new wells containing fresh medium with increasing antibiotic concentrations (0.5×, 1×, 1.5×, and 2.5× the previous concentration) in a chessboard layout to monitor potential cross-contamination. Growth was monitored by measuring OD600 using a Biotek Synergy 2 microplate reader, and only populations grown in the highest drug concentration with an OD600 > 0.2 were transferred further.
A robotic liquid handling system was used to automatically prepare a 11 to 16-step serial dilution in 384-well microtiter plates (Greiner). A final concentration of 5 × 10^5 bacterial cells per mL were inoculated into each well containing 60 µL MHB medium. Bacterial cultures were incubated at 37 °C with continuous shaking (Infors shaker, 900 rpm with 3 mm throw) for 18 hours (2 replicates from each). Cell growth was monitored by measuring the optical density (OD600 values, using Biotek Synergy microplate reader). MIC was defined as the antibiotic concentration of complete growth inhibition (i.e., OD600 < 0.05). Relative MIC was calculated as follows:1 relativeMIC=MICevolved/MICancestor […]
Supplementary Figure 4. Resistance levels following adaptive laboratory evolution across bacterial strains. The level of resistance was measured as the fold change in relative MIC between evolved and ancestral strains after ~60 days of adaptive laboratory evolution. Data are grouped by bacterial strain (A. baumannii (AB), E. coli (EC), K. pneumoniae (KP), and P. aeruginosa (PA)) and categorized as either multidrug-resistant (MDR) or sensitive (SEN). Each data point represents a laboratory evolved line, and boxplots show the median, first and third quartiles, with whiskers indicating the 5th and 95th percentiles.
Statistical analysis was performed using two-sided Dunn’s post-hoc test with Benjamini-Hochberg correction for multiple comparisons (****/ ***/ **/ * indicates p < 0.0001/ 0.001/ 0.01/ 0.05). For detailed information on antibiotic and bacterial species, see Supplementary Table 1. For mode of action groups, refer to Table 1. Source data are provided as a Source Data file.

E. coli BW25113-ΔacrB = experiment: AcrAB-TolC efflux deficiency screen, relative MIC; type: cell-based, Escherichia coli; settings: ΔacrB vs wild-type
Protocol: Fig. 6 The impact of AcrAB-TolC activity on antibiotic susceptibility. E. coli strains with AcrAB-TolC depletion (BW25113-ΔacrB) and overexpression (BW25113: pUCacrAB) were treated with various antibiotics, and the level of resistance was determined as minimum inhibitory concentration (MIC) relative to a wild-type strain, presented on a logarithmic scale (log2). Each bar represents the mean resistance level (susceptibility, i.e., level of resistance < 0; and resistance, i.e., level of resistance > 0) to antibiotics induced by acrAB overexpression (blue bars; E. coli with a multicopy plasmid of the acrAB genes (pUCacrAB)) and acrB deletion (red bars; mutant E. coli with acrB gene deletion (ΔacrB)) compared to the wild-type. Data are presented as mean values of 3 biological replicates ± SD. […] Detailed information on antibiotic and bacterial strain abbreviations is provided in Supplementary Data 1. Source data are provided as a Source Data file. For information on mode of action groups, refer to Table 1.
For the efflux deficiency screen, the ΔacrB mutant of E. coli K12 BW25113[86] and its equivalent wild-type control strain with intact gene were utilized. In contrast, BW25113 carrying a multicopy acrAB plasmid (pUCacrAB)[87] and its control strain harboring an empty pUC118 plasmid were used to overexpress the acrAB efflux system. According to established protocols via P1 transduction, the suitable acrB deletion mutant (ΔacrB BW25113) was created, while the pUCacrAB plasmid was kindly provided by Kunihiko Nishino and Akihito Yamaguchi (Osaka University, Osaka, Japan). In a prior study, both strains were employed. Since the copy number of the plasmid carrying the efflux pump is controlled by native promoters, external induction is unnecessary.
Antibiotic susceptibilities of these strains were evaluated using a modified version of the standard broth dilution method. In 96-well microtiter plates containing fresh MHB medium, or supplemented MS medium in case of SCH79797, ten-step serial dilutions of an antibiotic from a stock solution were made (2 wells per antibiotic concentration per strain). The two wells contained only supplemented media without any antibiotics […]. Strains were incubated overnight at 37 °C with continuous agitation. Additionally, plasmid containing strains were grown in the presence of 100 µg/mL ampicillin. The culture was diluted to yield a cell suspension with 5 ×10^5 cells/mL and then inoculated into the wells of the microtiter plate. To determine the medium’s background OD value, the first column of the 96-well plate contained solely MHB without inoculum. Prior to the measurement, the plates were incubated at 37 °C with continuous shaking at 900 rpm with 3 mm throw. OD600 values were determined in a microplate reader after 18 hours of incubation (Biotek Synergy 2). The minimum inhibitory concentration (MIC) was determined as the lowest concentration of antibiotic at which the OD600 values were less than 0.05 after subtracting the background value. The log2 of the relative MIC was computed using the following equation:2 log2relativeMICpUCacrAB=MICpUCacrAB/MICpUC118 3 log2relativeMICΔacrB=MICΔacrB/MICwt

[2] = KP-SEN (ATCC 10031), evolved line 1, MIC of evolved line / MIC of ancestor
[3] = KP-SEN (ATCC 10031), evolved line 2, MIC of evolved line / MIC of ancestor
[4] = KP-SEN (ATCC 10031), evolved line 3, MIC of evolved line / MIC of ancestor
[5] = KP-SEN (ATCC 10031), evolved line 4, MIC of evolved line / MIC of ancestor
[6] = KP-SEN (ATCC 10031), evolved line 5, MIC of evolved line / MIC of ancestor
[7] = KP-SEN (ATCC 10031), evolved line 6, MIC of evolved line / MIC of ancestor
[8] = KP-SEN (ATCC 10031), evolved line 7, MIC of evolved line / MIC of ancestor
[9] = KP-SEN (ATCC 10031), evolved line 8, MIC of evolved line / MIC of ancestor
[10] = KP-SEN (ATCC 10031), evolved line 9, MIC of evolved line / MIC of ancestor
[11] = KP-SEN (Klebsiella pneumoniae ATCC 10031), evolved line 8 adapted to the named antibiotic
[12] = KP-SEN (Klebsiella pneumoniae ATCC 10031), evolved line 9 adapted to the named antibiotic
[13] = Klebsiella pneumoniae ATCC 10031 (KP-SEN), evolved line 1
[14] = Klebsiella pneumoniae ATCC 10031 (KP-SEN), evolved line 2
[15] = Klebsiella pneumoniae ATCC 10031 (KP-SEN), evolved line 3
[16] = Klebsiella pneumoniae ATCC 10031 (KP-SEN), evolved line 4
[17] = Klebsiella pneumoniae ATCC 10031 (KP-SEN), evolved line 5
[18] = Klebsiella pneumoniae ATCC 10031 (KP-SEN), evolved line 6
[19] = Klebsiella pneumoniae ATCC 10031 (KP-SEN), evolved line 7
[20] = Klebsiella pneumoniae ATCC 10031 (KP-SEN), evolved line 8
[21] = Klebsiella pneumoniae ATCC 10031 (KP-SEN), evolved line 9

Structure (SMILES): Nc1nc(-n2cc(C(=O)O)c(=O)c3cc(F)c(N4CC(O)C4)c(Cl)c32)c(F)cc1F [Delafloxacin]
- Relative MIC ([1]; KP-MDR (ATCC 700603), evolved line 2, MIC of evolved line / MIC of ancestor): 64
- Relative MIC ([1]; KP-MDR (ATCC 700603), evolved line 3, MIC of evolved line / MIC of ancestor): 16
- Relative MIC ([1]; KP-MDR (ATCC 700603), evolved line 4, MIC of evolved line / MIC of ancestor): 32
- Relative MIC ([1]; KP-MDR (ATCC 700603), evolved line 5, MIC of evolved line / MIC of ancestor): 32
- Relative MIC ([1]; KP-MDR (ATCC 700603), evolved line 6, MIC of evolved line / MIC of ancestor): 128
- Relative MIC ([1]; KP-MDR (ATCC 700603), evolved line 7, MIC of evolved line / MIC of ancestor): 128
- Relative MIC ([1]; KP-MDR (ATCC 700603), evolved line 8, MIC of evolved line / MIC of ancestor): 64
- Relative MIC ([1]; KP-MDR (ATCC 700603), evolved line 9, MIC of evolved line / MIC of ancestor): 64
- Relative MIC ([1]; KP-MDR (ATCC 700603), evolved line 10, MIC of evolved line / MIC of ancestor): 64
- Relative MIC (log10) ([1]; KP-MDR (Klebsiella pneumoniae ATCC 700603), evolved line 2 adapted to the named antibiotic): 1.806
- Relative MIC (log10) ([1]; KP-MDR (Klebsiella pneumoniae ATCC 700603), evolved line 6 adapted to the named antibiotic): 2.107
- Relative MIC (log10) ([1]; KP-MDR (Klebsiella pneumoniae ATCC 700603), evolved line 7 adapted to the named antibiotic): 2.107
- Relative MIC (log10) ([1]; KP-MDR (Klebsiella pneumoniae ATCC 700603), evolved line 8 adapted to the named antibiotic): 1.806
- Relative MIC (log10) ([1]; KP-MDR (Klebsiella pneumoniae ATCC 700603), evolved line 10 adapted to the named antibiotic): 1.806
- Relative MIC [1, 2]: 16384
- Relative MIC [1, 3]: 8192
- Relative MIC [1, 4]: 16384
- Relative MIC [1, 5]: 8192
- Relative MIC [1, 6]: 16384
- Relative MIC [1, 7]: 16384
- Relative MIC [1, 8]: 8192
- Relative MIC [1, 9]: 65536
- Relative MIC [1, 10]: 65536
- Relative MIC (log10) ([1]; KP-SEN (Klebsiella pneumoniae ATCC 10031), evolved line 1 adapted to the named antibiotic): 4.214
- Relative MIC (log10) ([1]; KP-SEN (Klebsiella pneumoniae ATCC 10031), evolved line 3 adapted to the named antibiotic): 4.214
- Relative MIC (log10) ([1]; KP-SEN (Klebsiella pneumoniae ATCC 10031), evolved line 7 adapted to the named antibiotic): 3.913
- Relative MIC (log10) [1, 11]: 4.816
- Relative MIC (log10) [1, 12]: 4.816
- Relative MIC [1, 13]: 16384
- Relative MIC [1, 14]: 8192
- Relative MIC [1, 15]: 16384
- Relative MIC [1, 16]: 8192
- Relative MIC [1, 17]: 16384
- Relative MIC [1, 18]: 16384
- Relative MIC [1, 19]: 8192
- Relative MIC [1, 20]: 65536
- Relative MIC [1, 21]: 65536
- Relative MIC ([1]; Klebsiella pneumoniae ATCC 700603 (KP-MDR), evolved line 2): 64
- Relative MIC ([1]; Klebsiella pneumoniae ATCC 700603 (KP-MDR), evolved line 3): 16
- Relative MIC ([1]; Klebsiella pneumoniae ATCC 700603 (KP-MDR), evolved line 4): 32
- Relative MIC ([1]; Klebsiella pneumoniae ATCC 700603 (KP-MDR), evolved line 5): 32
- Relative MIC ([1]; Klebsiella pneumoniae ATCC 700603 (KP-MDR), evolved line 6): 128
- Relative MIC ([1]; Klebsiella pneumoniae ATCC 700603 (KP-MDR), evolved line 7): 128
- Relative MIC ([1]; Klebsiella pneumoniae ATCC 700603 (KP-MDR), evolved line 8): 64
- Relative MIC ([1]; Klebsiella pneumoniae ATCC 700603 (KP-MDR), evolved line 9): 64
- Relative MIC ([1]; Klebsiella pneumoniae ATCC 700603 (KP-MDR), evolved line 10): 64
- Relative MIC (log2) (E. coli BW25113-ΔacrB; replicate 1): -4
- Relative MIC (log2) (E. coli BW25113-ΔacrB; replicate 2): -4
- Relative MIC (log2) (E. coli BW25113-ΔacrB; replicate 3): -4

Structure (SMILES): C[C@H]1c2cccc(O)c2C(=O)C2=C(O)[C@]3(O)C(=O)C(C(N)=O)=C(O)[C@@H](N(C)C)[C@@H]3[C@@H](O)[C@@H]21 [Doxycycline]
- Relative MIC [1, 2]: 32
- Relative MIC [1, 3]: 64
- Relative MIC [1, 4]: 32
- Relative MIC [1, 5]: 256
- Relative MIC [1, 6]: 256
- Relative MIC [1, 7]: 256
- Relative MIC [1, 8]: 256
- Relative MIC [1, 9]: 256
- Relative MIC [1, 10]: 256
- Relative MIC ([1]; KP-SEN (ATCC 10031), evolved line 10, MIC of evolved line / MIC of ancestor): 128
- Relative MIC (log10) ([1]; KP-SEN (Klebsiella pneumoniae ATCC 10031), evolved line 4 adapted to the named antibiotic): 2.408
- Relative MIC (log10) ([1]; KP-SEN (Klebsiella pneumoniae ATCC 10031), evolved line 5 adapted to the named antibiotic): 2.408
- Relative MIC (log10) ([1]; KP-SEN (Klebsiella pneumoniae ATCC 10031), evolved line 6 adapted to the named antibiotic): 2.408
- Relative MIC (log10) [1, 11]: 2.408
- Relative MIC (log10) [1, 12]: 2.408
- Relative MIC [1, 13]: 32
- Relative MIC [1, 14]: 64
- Relative MIC [1, 15]: 32
- Relative MIC [1, 16]: 256
- Relative MIC [1, 17]: 256
- Relative MIC [1, 18]: 256
- Relative MIC [1, 19]: 256
- Relative MIC [1, 20]: 256
- Relative MIC [1, 21]: 256
- Relative MIC ([1]; Klebsiella pneumoniae ATCC 10031 (KP-SEN), evolved line 10): 128
- Relative MIC (log2) (E. coli BW25113-ΔacrB; replicate 1): -2.34
- Relative MIC (log2) (E. coli BW25113-ΔacrB; replicate 2): -2.34
- Relative MIC (log2) (E. coli BW25113-ΔacrB; replicate 3): -2.34
